In patent US11850256B2, “Small molecule-mediated restoration of airway surface physiology in human cystic fibrosis lung epithelia” (The Board of Trustees of the University of Illinois, priority 2016, dated 2023):
“Also recorded” adds a separate entry of the source.

Test system: CuFi-4 (ΔF508/G551D) monolayers
Assay: 14C bicarbonate transport in CuFi-4 monolayers
Assay type: cell-based, human
Experimental: ^14C bicarbonate was administered to the basolateral side of monolayers to trace ion movement through the cells over time. Epithelial monolayers grown from the patient-derived lung epithelial cell line CuFi-1 (ΔF508/ΔF508) were also studied. The genotype ΔF508/ΔF508 represents about 46.5% of all CF patients and is considered a relatively severe deficiency. Permeabilization of the apical membrane to bicarbonate anions with AmB could correct the flux abnormality resulting from the loss of CFTR. Upon treatment with 2 μM AmB for 48 hours, a decrease in intracellular ^14C bicarbonate and an increase in ASL ^14C bicarbonate compared to CuFi-1 alone was observed (FIGS. 15A and 15B).
Ivacaftor is a clinically approved and effective drug to treat cystic fibrosis, and it was used as a control in some of the experiments. Following literature precedent for in vitro ivacaftor administration, CuFi-4 (ΔF508/G551D) epithelia were treated with forskolin (Fsk) to promote phosphorylation of CFTR and ivacaftor (Iva) to potentiate conductance through the channel. E. H. Chang et al., Int Forum Allergy Rhinol 5, 178-181 (2015); F. Van Goor et al. (2009) Proc. Natl. Acad. Sci. 106, 18825-18830. […] This provides evidence that while both ivacaftor and AmB increase bicarbonate transport, AmB is operating through a genotype-agnostic mechanism.

Compound: C[C@@H]1[C@H](O)[C@@H](C)/C=C/C=C/C=C/C=C/C=C/C=C/C=C/[C@H](O[C@@H]2O[C@H](C)[C@@H](O)[C@H](N)[C@@H]2O)C[C@@H]2O[C@](O)(C[C@@H](O)C[C@@H](O)[C@H](O)CC[C@@H](O)C[C@@H](O)CC(=O)O[C@H]1C)C[C@H](O)[C@H]2C(=O)O [AmB, amphotericin B]
- ASL 14C bicarbonate: significantly increase; also recorded: increase bicarbonate in ASL
